Columns and labels:
[1] = molecular target: T1, ATP-dependent translocase ABCB1 (Homo sapiens, UniProt P08183); test: TP_TRANSPORTER: inhibition of Digoxin transepithelial transport (basal to apical) (Digoxin: 5 uM) in Caco-2 cells; type: functional, cell-based
[2] = molecular target: T1, ATP-dependent translocase ABCB1; test: TP_TRANSPORTER: inhibition of Cyclosporin A transepithelial transport (basal to apical) (Cyclosporin A: 1 uM) in Caco-2 cells; type: functional, cell-based

T1 sequence (P08183 whole entry): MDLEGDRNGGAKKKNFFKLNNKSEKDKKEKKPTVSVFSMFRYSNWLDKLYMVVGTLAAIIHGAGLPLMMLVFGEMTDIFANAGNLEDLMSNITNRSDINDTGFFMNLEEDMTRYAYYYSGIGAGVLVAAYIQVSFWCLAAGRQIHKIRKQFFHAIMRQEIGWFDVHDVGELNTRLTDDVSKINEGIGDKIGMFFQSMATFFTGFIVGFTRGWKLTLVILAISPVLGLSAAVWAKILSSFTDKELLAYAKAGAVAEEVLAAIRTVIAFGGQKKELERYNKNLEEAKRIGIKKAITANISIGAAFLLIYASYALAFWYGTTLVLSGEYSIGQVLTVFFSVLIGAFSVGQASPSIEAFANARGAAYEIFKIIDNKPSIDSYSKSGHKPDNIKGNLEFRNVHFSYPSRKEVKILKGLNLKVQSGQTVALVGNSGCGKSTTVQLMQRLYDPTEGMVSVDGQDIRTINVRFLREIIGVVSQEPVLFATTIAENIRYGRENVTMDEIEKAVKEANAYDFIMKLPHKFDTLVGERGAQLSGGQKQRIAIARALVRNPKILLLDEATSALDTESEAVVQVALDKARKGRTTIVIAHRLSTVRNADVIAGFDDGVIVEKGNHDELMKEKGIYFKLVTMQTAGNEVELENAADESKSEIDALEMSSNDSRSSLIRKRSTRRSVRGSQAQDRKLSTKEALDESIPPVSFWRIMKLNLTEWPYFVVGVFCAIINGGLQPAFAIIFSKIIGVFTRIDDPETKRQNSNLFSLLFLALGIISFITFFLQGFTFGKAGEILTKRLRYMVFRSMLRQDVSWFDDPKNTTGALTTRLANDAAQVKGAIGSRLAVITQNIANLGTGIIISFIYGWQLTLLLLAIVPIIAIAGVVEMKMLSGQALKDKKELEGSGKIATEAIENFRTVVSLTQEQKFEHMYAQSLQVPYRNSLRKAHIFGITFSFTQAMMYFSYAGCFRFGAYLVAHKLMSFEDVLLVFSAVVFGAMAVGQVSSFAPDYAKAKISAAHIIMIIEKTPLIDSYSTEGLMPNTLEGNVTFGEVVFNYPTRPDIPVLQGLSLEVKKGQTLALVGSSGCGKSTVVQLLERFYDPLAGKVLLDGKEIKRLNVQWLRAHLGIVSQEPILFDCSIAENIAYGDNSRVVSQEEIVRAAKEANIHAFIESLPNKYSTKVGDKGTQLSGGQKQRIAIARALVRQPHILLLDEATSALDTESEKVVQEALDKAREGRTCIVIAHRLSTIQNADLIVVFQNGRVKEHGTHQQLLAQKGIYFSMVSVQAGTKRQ

IC50 [1]: 15.5 µM
IC50 [2]: 74.1 µM
SMILES: O=C(/C=C/C=C/c1ccc2c(c1)OCO2)N1CCCCC1 [PIPERINE]
